# Measured values taken from PubChem BioAssay AID624491 (Broad Institute, 2012).
# The source made the active and inactive calls.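 Rule for the calls: active = fitted curve crossing a set activation limit at or below the highest valid dose tested; inconclusive = flat fit at 30 to 70% activation, or poor fit; inactive = the rest, including signal decreases.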
# Test system: D54 ERlucT glycosylation luciferase reporter, luminescence, 24 h
# Experiment: blockers of NLG process in reporter cells – D54 ERlucT cells, luminescence, cherry-picks, dose response (AID 624491);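 note: signal gain reflects blocked N-linked glycosylation of a luciferase reporter; actives raise luciferase signal so AC26 marks activators of the reporter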
row,SMILES,AC26
1,COc1cccc(N2CCN(C(=O)c3[nH]c(C)c(C(C)=O)c3C)CC2)c1,1680 nM
2,O=C(c1cccc(N2CCCC2=O)c1)N1CCN(c2cccc(Cl)c2)CC1,2600 nM
3,Cc1cccc(N2C(=O)N3[C@H](c4ccc(F)cc4)[C@@H]4C(=O)N(C5CCCCC5)C(=O)[C@@H]4[C@]3(Cc3ccccc3)C2=O)c1,692 nM
4,COc1ccc(OC)c(-c2cc(-c3cccnc3)nc(N)c2C#N)c1,2230 nM
5,COc1ccc([C@@H]2[C@@H]3C(=O)N(C(C)(C)C)C(=O)[C@@H]3[C@]3(Cc4ccccc4)C(=O)N(c4cccc(C)c4)C(=O)N23)cc1,1300 nM
6,COc1ccccc1-c1nnc2sc(-c3cc4ccccc4o3)nn12,63.7 nM
7,COc1cc(OC)c(N2CC(C(=O)Nc3cc(Cl)ccc3N3CCOCC3)CC2=O)cc1Cl (stereo unspecified),3310 nM
8,COc1cc(C(=O)N/N=C(\C)c2ccc3c(c2)OCO3)cc(OC)c1OC,1260 nM
9,COc1ccc(OC)c(S(=O)(=O)Nc2ccc(-c3ccc4nnc(C)n4n3)cc2)c1,3190 nM
10,COc1cccc(N2[C@@H](CC(C)=O)c3ccc(/C=C/C(C)=O)cc3S2(=O)=O)c1,3280 nM
11,Cc1cccc2c(C(=O)N3CCN(c4ccccc4)CC3)cc(-c3ccncc3)nc12,198 nM
12,COc1ccc(CC(=O)NCc2ccc(-n3cccc3)cc2)cc1OC,825 nM
13,CC(=O)Nc1sc(C)c(C)c1C(=O)OCC(=O)N(CC(C)C)c1c(N)n(Cc2ccccc2)c(=O)[nH]c1=O,4710 nM
14,CC(C)CC(NC(=O)c1ccc(Cl)cc1)C(=O)OCC(=O)c1ccc2c(c1)NC(=O)CO2 (stereo unspecified),4090 nM
15,CCCCNC(=O)c1cc(-c2ccc(F)cc2)on1,3450 nM
16,COc1ccc(Sc2nnc(Cc3ccccc3)c3ccccc23)cc1,2880 nM
17,OCC1OC(n2ccc3c(SCc4ccccc4)ncnc32)C(O)C1O (stereo unspecified),332 nM
18,CCN(CC)CCCNc1ccc2ncn3c4ccc(O)cc4c(=O)c1c23,92.6 nM
19,Cn1nc(-c2ccc(N3CCOCC3)c(NS(=O)(=O)c3ccccc3)c2)c2ccccc2c1=O,6110 nM
20,CC=Cc1cc2c(c(=O)o1)C(=O)C(O)C(C)O2 (stereo unspecified),5300 nM
21,CC(=O)NC(c1cccc(F)c1)c1nc(-c2ccccc2C)cs1 (stereo unspecified),502 nM
22,COc1ccc(Nc2c3ccccc3nc3ccccc23)cc1,1020 nM

row,SMILES,AC26
1,O=C1c2cccc3cccc(c23)C(=O)N1CC1CCN(CC(O)COCc2ccc3c(c2)OCO3)CC1 (stereo unspecified),> 19500 nM (inactive)
2,CC(=O)/C=C/c1ccccc1Oc1c(F)c(F)nc(F)c1F,183 nM
3,NC(=O)CC(NC(=O)Cc1ccc(Br)cc1)c1ccc(NC2CCN(Cc3ccccc3)CC2)c([N+](=O)[O-])c1 (stereo unspecified),496 nM
4,O=C(NCC1CCCO1)c1cc(-c2ccc(F)cc2)no1 (stereo unspecified),5760 nM
5,Cc1nnc2c(NC3CCCCC3)nc3ccccc3n12,2760 nM
6,Cc1ccc(S(=O)(=O)C(NC(=O)c2ccccc2)=C(Cl)Cl)cc1,4090 nM
7,CC(C)c1ccc(NC(=O)CN2C(=O)NC3(CCCCCCC3)C2=O)cc1,1210 nM
8,COc1ccc(Nc2cc(C)nc3ccc(OC)cc23)cc1,1830 nM
9,CCn1c2ccccc2c2cc(/C=N/NC(=O)c3ccc(O)cc3)ccc21,2160 nM
10,NC(=O)CC(NC(=O)c1ccc(Br)cc1)c1ccc(NC2CCCCC2)c([N+](=O)[O-])c1 (stereo unspecified),6020 nM
11,Cc1ccc(-c2cc(C(=O)NCC(c3ccccc3)N(C)C)c3ccccc3n2)o1 (stereo unspecified),11400 nM
12,CCOC(=O)N1CCC(NC(=O)c2ccc3c(c2)N=C(C)c2c(C)ccc(C)c2S3)CC1,441 nM
13,COc1ccc(C(C)(O)c2nc(-c3ccc(F)cc3OC)cs2)cc1 (stereo unspecified),5930 nM
14,Cc1cccn2c(=O)c3cc(C(=O)NC4CCCC4)c(=N)n(CC4CCCO4)c3nc12 (stereo unspecified),8180 nM
15,CCN(CC)c1ccc(NC(=O)CC2Oc3ccccc3NC2=O)c(C)c1 (stereo unspecified),11600 nM
16,COc1cc(-c2nccc3cc4c(cc23)OCO4)cc(OC)c1OC,1490 nM
17,CCOC(=O)c1c(NC(=O)c2cc3n(n2)C(C(F)(F)F)CC(c2cccs2)N3)sc(C)c1C (stereo unspecified),5140 nM
18,CCCn1c(CN2CCN(C(=O)OCC)CC2)nc2cc(NC(=O)CC)ccc21,9150 nM
19,Nc1nc(-c2ccccc2)cc(N2CCCCC2)n1,4270 nM
20,Cc1cc(C)cc(NC(=O)CCn2c(=O)c3cccn3c3ccccc32)c1,4950 nM
21,C=CCn1c(O)c(/C=C2/C=CC=N2)c(=O)[nH]c1=O,3080 nM
22,Cc1nc([N+](=O)[O-])c(Sc2nc3ccccc3[nH]2)n1Cc1ccccc1,8510 nM

row,SMILES,AC26
1,C/C(=N\NC(=O)c1c(Cl)c(C)nn1C)c1ccc(NC(=O)C2CCC2)cc1,3.55 nM
2,CCN1C(=O)c2cccc3c(S(=O)(=O)Nc4ccccc4OC)ccc1c23,4240 nM
3,CN(C)CCNC(=O)c1cccc2[nH]c(-c3ccncc3)nc12,894 nM
4,COc1cc(OC)c2c(-c3cccc(-c4ccoc4)c3)cc(=O)oc2c1,7640 nM
5,Cc1cccn2c(=O)c3cc(C(=O)NC4CCCC4)c(=N)n(CCc4ccccc4)c3nc12,1280 nM
6,N#Cc1c(NCCN)nc(-c2ccco2)c2c1CCCC2,1730 nM
7,O=C(Nc1c2ccccc2nc2ccccc12)C(Cl)(Cl)Cl,3340 nM
8,O=C(Nc1cc(Cl)ccc1N1CCOCC1)c1ccc(N2CCCC2=O)cc1,108 nM
9,COc1cc(-c2noc(C)c2/C=C/c2ccc(N)cc2)cc(OC)c1OC,467 nM
10,COc1ccc(-c2nnc(SCC(=O)Nc3ncc(C)s3)n2-c2ccccc2)cc1OC,1050 nM
11,COc1ccccc1-n1cnc2cc(NCc3ccco3)ccc21,1510 nM
12,O=C1NC[C@H](Cc2ccccc2)N(C[C@H]2CCCN2C[C@H](Cc2ccccc2)N2C[C@H](Cc3ccc(O)cc3)N(CCc3ccccc3)C(=O)C2=O)C1=O,5790 nM
13,COc1ccc(CC(=O)N/N=C/c2c(C)n(C)c3ccccc23)cc1OC,4460 nM
14,CCCn1nc(C(=O)N2CC(=O)Nc3ccccc32)c2ccccc2c1=O,4890 nM
15,O=C(COC(=O)Cn1cnc2ccccc21)Nc1cccc2c1C(=O)c1ccccc1C2=O,2840 nM
16,CSc1ncnc2c1ncn2CCCN[C@H](C)c1cccc2ccccc12,679 nM
17,CCOC(=O)Cc1csc(/N=C/c2c(O)n(-c3ccc(C)c(C)c3)c(=O)c3ccccc23)n1,2580 nM
18,CCN(CC)c1ccc(NC(=O)c2cc(OC)cc(OC)c2)c(C)c1,932 nM
19,CC1(C(=O)NCc2ccccc2)Cc2c(-c3cccc(C(N)=O)c3)ccnc2O1 (stereo unspecified),2100 nM
20,CCN(c1cccc(C)c1)S(=O)(=O)c1ccc(-c2cc(C)no2)s1,1270 nM
21,CC1(C(=O)NCc2ccco2)Cc2c(-c3ccc(C(N)=O)cc3)ccnc2O1 (stereo unspecified),1390 nM
22,COc1cc2c(cc1OC)C(c1cc(Br)ccc1F)N(C(=O)CCl)CC2 (stereo unspecified),2280 nM

row,SMILES,AC26
1,Cn1nc(C(F)(F)F)c(/C=N/OC(=O)c2ccccc2Cl)c1SCc1ccccc1Cl,817 nM
2,O=C(/C=C/c1ccco1)Nc1nnc(-c2ccco2)s1,310 nM
3,O=C(N/N=C/c1cccc(Br)c1)c1ccc(N2CCCC2=O)cc1,6630 nM
4,CCc1ccc(N2C(=O)Nc3ccccc3C2(O)C(=O)N2CCN(c3ccccn3)CC2)cc1 (stereo unspecified),625 nM
5,CC1(C(=O)NCCc2ccccc2)Cc2c(-c3ccc4c(c3)OCO4)ccnc2O1 (stereo unspecified),3160 nM
6,CCOC(=O)c1ccc(Oc2cc(C)nc(SC)n2)cc1,1720 nM
7,COc1ccc(CNC(=O)c2cccc3c(-c4cccc(C(N)=O)c4)coc23)cc1OC,663 nM
8,CN(C)S(=O)(=O)c1ccc(N2CCCC2)c(C(=O)Nc2nc3ccccc3s2)c1,545 nM
9,COc1ccccc1/C=N/NC(=O)CSc1cc(C)nc2ccccc12,2940 nM
10,COc1cccc(N2CCN(C(=O)c3ccc(CS(=O)c4ccc(Cl)cc4)o3)CC2)c1 (stereo unspecified),234 nM
11,COC(=O)c1cc(C(=O)c2c(C)cc3ccccn23)cc([N+](=O)[O-])c1,1770 nM
12,CCc1nn2c(NCCCO)cc(C)nc2c1-c1ccc(F)cc1,1630 nM
13,COc1cccc(N2CCN(C(=O)c3ccc(CS(=O)c4ccc(C)cc4)o3)CC2)c1 (stereo unspecified),110 nM
14,CN(C)S(=O)(=O)c1ccc(N2CCCC2)c(C(=O)Nc2cccc(F)c2)c1,931 nM
15,CCOC(=O)N/N=C/c1ccc(N(CC)CC)cc1O,2990 nM
16,C=CCn1cccc(/C=C/C(=O)c2ccc(C(C)(C)C)cc2)c1=S,1290 nM
17,CCOc1ccc(NC(=O)C(=O)NCCN2CCN(S(=O)(=O)c3ccc(C)cc3)CC2)cc1,4890 nM
18,COC(=O)c1cn(C(=O)/C=C/c2ccc(OC)c(OC)c2)c2ccccc12,1640 nM
19,COCCN(C(=O)CCl)C(C(=O)NC1CCCCC1)c1ccccc1C (stereo unspecified),3340 nM
20,Oc1cccc(Nc2c3ccccc3nc3ccccc23)c1,1440 nM
21,Cc1ccc(S(=O)(=O)N(C)C[C@@H]2Oc3ccc(NC(=O)CCC(F)(F)F)cc3CC(=O)N([C@@H](C)CO)C[C@@H]2C)cc1,1470 nM
22,Cc1ccc(C(=O)N2CCC(C(=O)Nc3cccc([N+](=O)[O-])c3)CC2)cc1,804 nM

row,SMILES,AC26
1,COCCCNC(=O)c1sc2ncn(CC(=O)Nc3ccc(C)c(Cl)c3)c(=O)c2c1C,1380 nM
2,O=c1cc(N/N=C/c2ccccc2)[nH]c(=O)[nH]1,14400 nM
3,C=CCNc1nc(Nc2ccc(OC)c(OC)c2)c2sc(-c3ccccc3)cc2n1,513 nM
4,COc1ccc2c(c1)OC[C@H]1[C@H]2N2C(=O)c3cc(Cl)ccc3NC(=O)[C@@]2(C)[C@H]1c1ccccc1,1250 nM
5,COc1cc(/C=C/C(=O)/C=C(O)/C=C/c2ccc(O)c(OC)c2)ccc1O,2090 nM
6,CCN(CC)CCn1c2ccccc2c2nc3ccc([N+](=O)[O-])cc3cc21,7740 nM
7,COc1cccc(CNC(=O)COC(=O)c2ccc(-c3ccc(O)cc3)cc2)c1,685 nM
8,Cc1noc(C)c1-c1ccc(C(=O)NCCc2ccccc2)c2occc12,4410 nM
9,Cn1c(C(=O)OCC(=O)NCc2ccc(F)cc2)cc2occc21,8970 nM
10,Oc1ccc(CCNc2c3ccccc3nc3ccccc23)cc1O,638 nM
11,COc1ccc(-c2ccnc(-c3ccncc3)n2)cc1,1390 nM
12,COc1ccc2c(c1)[C@H]1[C@H](CO2)[C@H](c2ccccc2)[C@]2(C)C(=O)Nc3cc(C)ccc3C(=O)N12,51.9 nM
13,COc1cc2c(cc1OC)C(c1cccs1)N(C(=S)NC(C)C)CC2 (stereo unspecified),252 nM
14,COc1ccccc1NC(=O)Cn1nnc(C(=O)NCc2cccs2)c1N,867 nM
15,Cc1cc(NC(=O)COC(=O)c2ccc(S(=O)(=O)N3CCCc4ccccc43)cc2)no1,665 nM
16,CCOCCCNC(=O)c1cc2c(=O)n(CC)c3ccccc3c2s1,8290 nM
17,COc1ccc(C2=NOC(C(=O)NCc3ccc(F)cc3)C2)cc1 (stereo unspecified),516 nM
18,Cc1c(C(=O)Nc2ccc3oc(-c4cccnc4)nc3c2)oc2ccccc12,8840 nM
